Measurements published in patent US10478485B2, “Methods and compositions to prevent or treat bacterial infections” (priority 2015, dated 2019).
Converted amounts (≈) assume the structure as drawn.

What was measured:
[1] = system: Acinetobacter baumannii; assay: SIgA breakdown / secretory component liberation by Acinetobacter baumannii (Western blot); assay type: cell-based; conditions: for inhibition of SIgA reduction and SC liberation: 2 hours after incubation
Description: Acinetobacter baumannii was incubated with 50 μg/mL SIgA to examine breakdown of the immunoglobulin. Breakdown of SIgA by A. baumannii was observed by liberation of secretory component from dimeric IgA. Goat anti-human secretory component (free and bound) antibody was used to monitor this occurrence though Western blot. A mixture of A. baumannii strain Ci79 was prepared in three concentrations −10^7, 10^6, and 10^5 CFU/mL—to determine whether SIgA breakdown was dose dependent with respect to bacterial concentration FIG. 1A. […] Next, two competitive inhibitors of reductase enzymes targeting the thioredoxin fold (-C-X-X-C-) motif typically found in thiol-reductase enzymes (thioredoxin, glutathione, thioredoxin reductase, etc) were identified. The first, dithionitrobenzoic acid (Ellman's reagent) is often used as a colorimetric substrate to monitor thioredoxin activity as it produces a bright yellow color upon cleavage of the disulfide bond within the molecule. The second is PX-12. […] (Error bars represent ±SEM in all graphs; statistical differences determined by ANOVA with Dunnett correction; * significance p<0.01; ** p<0.001).

[2] = cited from earlier work
[3] = system: multi-drug resistant (MDR) Acinetobacter baumannii clinical isolates; assay: Minimum inhibitory concentration (MIC) determination; assay type: cell-based
Description: PX-12 concentrations used in these experiments approximated the concentration reported “well tolerated” by mice (˜500 μg/mouse; 500 μg/mL for this experiment). […] Furthermore, this concentration was also bactericidal leading us to believe it may potentially be useful as a new antimicrobial compound for treating MDR Acinetobacter baumannii. (Bacterial concentrations used in presented studies ˜100× higher than recommended by CLSI standards)

[4] = system: A. baumannii strain Ci79; assay: Bacterial adherence to mouse intestinal sections; assay type: cell-based, Acinetobacter baumannii
Description: Intestinal sections were cut down one side to expose the inner lumen of the intestine and individually placed in suspensions of A. baumannii strain Ci79 (10^7 CFU/mL). The sections were incubated in this mixture for 30 minutes, washed twice in 250 volumes of sterile PBS and soaked in 500 volumes of PBS (volume of section ˜50-100 μL) for five minutes. The remaining bound bacteria were enumerated through homogenization of each section into single cell suspensions in 10 mL sterile PBS followed by dilution plating.

Row | SMILES | SIgA breakdown by Acinetobacter baumannii after addition of inhibitor [1] | inhibition of SIgA reduction and SC liberation ([1]; 1 mM) | inhibition of SIgA reduction at 24 hours ([1]; 24 hours) | concentration reported well tolerated by mice [2] [μg/mouse] | bacterial pellet size ([3]; 500 μg/mL) | MIC ([3]; Acinetobacter baumannii) [µg/mL] | bactericidal effect ([3]; at 31.25 μg/mL) | bactericidal activity (low MIC combined with low MBC) ([3]; repeat MIC to CLSI standards, ~5×10^5 CFU/mL, 64 to 0.5 μg/mL) | bacterial adherence to intestinal sections ([4]; 18 μg/mL, sections from WT C57BL/6 mice) | reduction of bacterial attachment ([4]; WT intestinal sections as 100% control, Ci79 10^7 CFU/mL, 30 minutes) [%] | time after which inhibition is overcome by the bacteria [1] | inhibition of SIgA reduction and SC liberation ([1]; 15 μg/mL) | SIgA breakdown by Acinetobacter baumannii ([1]; 18 μg/mL, up to 2 hours following treatment)
1 | O=C(O)c1cc(SSc2ccc([N+](=O)[O-])c(C(=O)O)c2)ccc1[N+](=O)[O-] [Ellman's reagent, dithionitrobenzoic acid] | significantly reduced | completely ablated | inhibition was still evident |  |  |  |  |  |  |  |  |  | 
2 | CCC(C)SSc1ncc[nH]1 (stereo not shown) [PX-12, 1-methylpropyl 2-imidazolyl disulfide] |  |  |  | ~500 | visible decrease in bacterial pellet size | 31.2 (≈ 166 µM) | bactericidal | bactericidal activity | significantly inhibits | ~40 | about 12 hours | completely ablated | significantly reduced
